Results reported in paper PMC4977651, “Molecular features of biguanides required for targeting of mitochondrial respiratory complex I and activation of AMP-kinase” (BMC Biology, 2016).
Where “and” joins values, the source holds several entries; their conditions need not be identical. Equal entries are not always repeated. Where two headings read alike, the source gives them in different places.

Key:
[1] = Octanol/PBS partition coefficient, shake-flask method; type: physicochemical; conditions: 32 °C, pH 7.4, n = 3
Description: Octanol/PBS partition coefficients were measured by the shake-flask method at 32 °C, pH 7.4.

[2] = molecular target: isolated bovine heart complex I (Bos taurus, UniProt P03887+P03898+P17694+P42026); experiment: NADH:decylubiquinone oxidoreduction by isolated complex I; type: biochemical; conditions: for HillSlope (best fit value) / LogIC50 (best fit value): Prism fit; for HillSlope (best fit value): no std. error; for remaining activity at 50 µM: inhibitor 0.05 mM; for remaining activity at 100 µM: inhibitor 0.10 mM; for remaining activity at 500 µM: inhibitor 0.50 mM; for remaining activity at 1000 µM: inhibitor 1.00 mM; for remaining activity at 5000 µM: inhibitor 5.00 mM; for LogIC50 (best fit value): log of IC50 in mM; for remaining activity at 200 µM: inhibitor 0.20 mM; for remaining activity at 2000 µM: inhibitor 2.00 mM
Chain of isolated bovine heart complex I (P42026 38-216): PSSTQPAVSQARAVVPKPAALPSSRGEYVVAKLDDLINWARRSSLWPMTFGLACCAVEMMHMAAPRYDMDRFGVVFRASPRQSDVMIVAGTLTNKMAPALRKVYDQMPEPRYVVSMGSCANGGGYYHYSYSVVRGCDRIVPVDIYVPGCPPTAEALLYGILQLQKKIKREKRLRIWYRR
Chain of isolated bovine heart complex I (P17694 34-463): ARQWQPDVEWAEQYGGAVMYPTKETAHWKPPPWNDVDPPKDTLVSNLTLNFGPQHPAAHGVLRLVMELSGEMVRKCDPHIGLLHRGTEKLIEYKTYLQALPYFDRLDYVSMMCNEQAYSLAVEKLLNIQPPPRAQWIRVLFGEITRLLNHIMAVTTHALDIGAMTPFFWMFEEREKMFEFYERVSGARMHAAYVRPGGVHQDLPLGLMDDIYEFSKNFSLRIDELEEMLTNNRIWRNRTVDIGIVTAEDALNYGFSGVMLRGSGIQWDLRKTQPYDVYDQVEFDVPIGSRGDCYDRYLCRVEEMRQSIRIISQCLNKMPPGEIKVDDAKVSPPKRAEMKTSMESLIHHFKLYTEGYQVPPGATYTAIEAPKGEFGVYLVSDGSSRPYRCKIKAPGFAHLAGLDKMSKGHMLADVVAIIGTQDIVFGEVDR
Chain of isolated bovine heart complex I (P03898 whole entry): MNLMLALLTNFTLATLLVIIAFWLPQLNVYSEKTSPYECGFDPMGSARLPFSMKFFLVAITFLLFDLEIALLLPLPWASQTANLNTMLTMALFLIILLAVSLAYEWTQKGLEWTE
Chain of isolated bovine heart complex I (P03887 whole entry): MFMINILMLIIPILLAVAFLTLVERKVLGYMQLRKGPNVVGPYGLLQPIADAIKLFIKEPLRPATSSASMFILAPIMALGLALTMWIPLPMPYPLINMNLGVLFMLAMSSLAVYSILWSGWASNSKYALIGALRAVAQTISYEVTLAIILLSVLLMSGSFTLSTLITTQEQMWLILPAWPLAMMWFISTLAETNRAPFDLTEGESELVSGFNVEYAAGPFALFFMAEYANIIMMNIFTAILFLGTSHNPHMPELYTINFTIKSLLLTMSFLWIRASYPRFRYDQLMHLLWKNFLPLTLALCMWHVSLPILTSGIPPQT
Description: Complex I and mitochondrial membranes were prepared from Bos taurus (bovine) heart. Intact mitochondria were isolated from rat liver and mouse heart and liver. Membranes were prepared from mouse heart mitochondria by 5 s bursts of sonication at 4 °C and collected by centrifugation (75,000 × g, 1 h).
Assays were performed at 32 °C in a SpectraMax 96-well plate reader. NADH:decylubiquinone oxidoreduction by complex I at 0.5 μg mL^−1 was measured in 20 mM Tris-HCl (pH 7.2), 0.15 % soy bean asolectin (Avanti Polar Lipids), and 0.15 % 3-((3-cholamidopropyl)dimethylammonium)-1-propanesulfonate (CHAPS, Merck Chemicals Ltd), with 200 μM decylubiquinone and 200 μM NADH, and monitored using ε340–380(NADH) = 4.81 mM^−1 cm^−1 [23]. Catalysis was initiated by addition of NADH and maximal rates determined by linear regression. NADH:O2 oxidoreduction by membranes was measured similarly but using 5 μg mL^−1 membranes in 10 mM Tris-HCl (pH 7.4) and 250 mM sucrose using 200 μM NADH and supplemented with 0.15 mM horse heart cytochrome c (Sigma-Aldrich Ltd.). Succinate:O2 oxidoreduction was measured using 40 μg mL^−1 membranes in 5 mM succinate in 10 mM Tris-HCl (pH 7.4) as described previously. Control experiments included NaCl (to match the ionic strength) or DMSO, as appropriate.
Experimental values are reported as mean averages ± standard deviation (SD) of technical replicates for large sample sizes and mean averages ± standard error of the mean (SEM) of technical replicates for small sample sizes. Data were analyzed by the unpaired two-tailed Student’s t test. IC50 values were determined using the standard dose-effect relationship (activity (%) = 100 × IC50 / (IC50 + [inhibitor]^m) with the Hill Slope (m) set to unity for purified complex I) and are reported with 95 % confidence intervals.

143B cells = experiment: Membrane potential measurement by TMRM fluorescence; type: cell-based, human
Description: 143B cells were seeded at 5 × 10^5 cells per 10 cm^2 well in DMEM containing 10 % FBS. […] The detached cells from each well were incubated in PBS containing 25 pg/mL tetramethylrhodamine, methyl ester (TMRM) and 20 μg/mL Hoescht stain for 20 min at 37 °C then washed twice and re-suspended in 200 μL PBS. TMRM fluorescence was detected using a NucleoCounter® NC 3000 cytometer with excitation at 530 nm and emission at 575 nm, with the Hoescht stain used to check for consistent cell density between samples.

[3] = bovine heart purified mitochondrial complex I
[4] = bovine heart purified mitochondrial complex I, Prism log(inhibitor) vs. response fit, Bottom 0, Top 100, read-out: IC50 (best fit value)
[5] = bovine heart purified mitochondrial complex I, read-out: average % (rate, % of no-inhibitor control)

SMILES | logP [1] | P (partition coefficient) [1] | HillSlope (best fit value) [2, 3] | IC50 [2, 4] | remaining activity at 50 µM [2, 5] | remaining activity at 100 µM [2, 5] | remaining activity at 500 µM [2, 5] | remaining activity at 1000 µM [2, 5] | remaining activity at 5000 µM [2, 5] | LogIC50 (best fit value) [2, 3] | remaining activity at 200 µM [2, 5] | remaining activity at 2000 µM [2, 5] | other results
NC(N)=NC(N)=NCCc1ccc(Cl)cc1 [compound 1, 2-[2-(4-chlorophenyl)ethyl]-1-(diaminomethylidene)guanidine] | 0.149 |  | 1 | 195 µM | 78.7% | 67.7% | 28.6% | 15.1% | 1.32% | -0.7098 |  |  | remaining activity at 250 µM ([2]; bovine heart purified mitochondrial complex I, inhibitor 0.25 mM, read-out: average % (rate, % of no-inhibitor control)): 44.8%; remaining activity at 2500 µM ([2]; bovine heart purified mitochondrial complex I, inhibitor 2.50 mM, read-out: average % (rate, % of no-inhibitor control)): 2.59%
N=C(N)NC(N)=Nc1ccccc1 [compound 2, phenyl biguanide] | -0.627 | 0.236 | 1 |  |  |  |  |  |  | -0.3388 |  |  | IC50 [2]: 458 µM
[H]/N=C(/N)N/C(=N/[H])NCCc1ccccc1 [phenformin, reference compound] |  |  |  |  |  |  |  |  |  |  |  |  | TMRM fluorescence, % of the control value (143B cells; after 6.5 h, phenformin at IC50/10 (34 μM), FCCP at 1 μM, n = 3): 22.4 ± 2.9%; mean-y (TMRM) (143B cells; individual replicates, phenformin 6.5 hours): 3427.6 and 3669.9 and 3614.5; TMRM average (143B cells; n 3, phenformin 6.5 hours): 3570.67; TMRM average, % control (143B cells; n 3, phenformin 6.5 hours): 22.44 % control

Continued, in another order:

logP [1] | P (partition coefficient) [1] | SMILES | HillSlope (best fit value) [2, 3] | IC50 [2, 4] | remaining activity at 50 µM [2, 5] | remaining activity at 100 µM [2, 5] | remaining activity at 500 µM [2, 5] | remaining activity at 1000 µM [2, 5] | remaining activity at 5000 µM [2, 5] | LogIC50 (best fit value) [2, 3] | remaining activity at 200 µM [2, 5] | remaining activity at 2000 µM [2, 5] | other results
-0.734 | 0.184 | NC(N)=NC(N)=NCc1ccccc1 [compound 3, 2-benzyl-1-(diaminomethylidene)guanidine] | 1 | 567 µM |  | 80% | 52.1% | 41% | 15.6% | -0.2463 | 65.6% | 27.6% | remaining activity at 10000 µM ([2]; bovine heart purified mitochondrial complex I, inhibitor 10.00 mM, read-out: average % (rate, % of no-inhibitor control)): 4.7%
-1.21 | 0.061 | CC(C)N=C(N)N=C(N)N [compound 4, 1-(diaminomethylidene)-2-(propan-2-yl)guanidine] | 1 | 6760 µM |  |  |  |  |  | 0.8297 |  |  | remaining activity at 620 µM ([2]; bovine heart purified mitochondrial complex I, inhibitor 0.62 mM, read-out: average % (rate, % of no-inhibitor control)): 88.4%; remaining activity at 1560 µM ([2]; bovine heart purified mitochondrial complex I, inhibitor 1.56 mM, read-out: average % (rate, % of no-inhibitor control)): 84.5%; remaining activity at 3000 µM ([2]; bovine heart purified mitochondrial complex I, inhibitor 3.00 mM, read-out: average % (rate, % of no-inhibitor control)): 70.3%; remaining activity at 5800 µM ([2]; bovine heart purified mitochondrial complex I, inhibitor 5.80 mM, read-out: average % (rate, % of no-inhibitor control)): 54.5%; remaining activity at 15620 µM ([2]; bovine heart purified mitochondrial complex I, inhibitor 15.62 mM, read-out: average % (rate, % of no-inhibitor control)): 30.1%; remaining activity at 31250 µM ([2]; bovine heart purified mitochondrial complex I, inhibitor 31.25 mM, read-out: average % (rate, % of no-inhibitor control)): 16.1%; remaining activity at 62500 µM ([2]; bovine heart purified mitochondrial complex I, inhibitor 62.50 mM, read-out: average % (rate, % of no-inhibitor control)): 5.52%
0.528 | 3.371 | CC(C)N=C(N)N=C(N)NC(C)C [compound 5, N-(propan-2-yl)-1-3-(propan-2-yl)carbamimidamidomethanimidamide] | 1 | 246 µM | 79.4% | 70.7% |  | 20.8% |  | -0.609 | 55.4% | 12.9% | remaining activity at 400 µM ([2]; bovine heart purified mitochondrial complex I, inhibitor 0.40 mM, read-out: average % (rate, % of no-inhibitor control)): 37.9%; remaining activity at 4000 µM ([2]; bovine heart purified mitochondrial complex I, inhibitor 4.00 mM, read-out: average % (rate, % of no-inhibitor control)): 9.93%
